By IC50 is commonly meant the concentration that gives 50% inhibition. Low readings indicate inhibition by little substance, high ones a need for much substance.

The record followed here is BindingDB's records for patent US9278914 (University of Tennessee Research Foundation, 2016).

Bounds are passed on as bounds.

The target in this series is Cytochrome P450 2C9 (Homo sapiens, UniProt P11712). The series can be described thus: In Vitro CYP Inhibition Assay. The following applies: 37 °C.
Chain of Cytochrome P450 2C9 (P11712 whole entry): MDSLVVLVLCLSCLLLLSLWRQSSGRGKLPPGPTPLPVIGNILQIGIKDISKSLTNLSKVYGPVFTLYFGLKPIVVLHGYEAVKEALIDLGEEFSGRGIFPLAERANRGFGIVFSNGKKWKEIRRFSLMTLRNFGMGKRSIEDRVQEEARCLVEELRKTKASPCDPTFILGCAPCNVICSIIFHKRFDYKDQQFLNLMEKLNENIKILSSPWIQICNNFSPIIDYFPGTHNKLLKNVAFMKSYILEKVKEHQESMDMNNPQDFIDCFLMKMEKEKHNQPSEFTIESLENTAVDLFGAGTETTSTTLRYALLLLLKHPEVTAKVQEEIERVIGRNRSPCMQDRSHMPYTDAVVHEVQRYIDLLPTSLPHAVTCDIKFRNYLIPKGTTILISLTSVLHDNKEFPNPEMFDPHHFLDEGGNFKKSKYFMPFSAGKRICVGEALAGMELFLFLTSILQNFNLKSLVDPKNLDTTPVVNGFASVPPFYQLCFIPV

In turn, `C[C@](O)(COc1ccc(Cl)c(F)c1)C(=O)Nc1ccc(C#N)c(C(F)(F)F)c1` [US9278914, S-II] came in with an IC50 of more than 20 µM.
